Patent US20100011610A1, “FLUIDIZED SPRAY DRYING” (Vertex Pharmaceuticals Incorporated, priority 2006, published 2010)

Experiment: in vivo
Conditions: rat, po

Work on `CCC[C@H](NC(=O)[C@@H]1[C@H]2CCC[C@H]2CN1C(=O)[C@@H](NC(=O)[C@@H](NC(=O)c1cnccn1)C1CCCCC1)C(C)(C)C)C(=O)C(=O)NC1CC1` [VX-950, Telaprevir] yielded a bioavailability of less than 0.5%.
